Measurements published in patent US9428519B2, “Acylated derivative of homoharringtonine, preparation method therefor, and application thereof” (HANGZHOU BENSHENG PHARMACEUTICAL CO., LTD., priority 2011, dated 2016).
Converted amounts (≈) assume the structure as drawn.

How the values were obtained:
[1] = tested on: K562/adr (drug-resistant, chronic myeloid leukemia, CML); assay: MTT growth inhibition of leukemia cells, 72 h; type: cell-based, human; details: MTT
From the text: (§1) Leukemia cell lines: leukemia cell lines: K562/adr (drug-resistant, chronic myeloid leukemia, CML), NB4 (acute promyelocytic leukemia, AML), Kasumi-1 (acute myeloid leukemia M2 type, AML-M2), Jurkat (acute lymphoblastic leukemia, ALL), all of which are donated by Cancer Research Institute of Zhejiang University, China; and H9 (acute lymphoblastic leukemia, ALL), which is purchased from China Center for Type Culture Collection (CCTCC).
(§2) Reagents: The standard sample of homoharringtonine (HHT) is purchased from Taihua Natural Plant Pharmaceutical Co., Ltd., Shaanxi, China, the homoharringtonine derivatives of the present invention.
(§3) Obtaining 6000 well-growing leukemia cells and inoculating them into wells of a 96-well cell culture plate. The culture medium is the 1640 cell culture medium containing 10% fetal bovine serum. After adding the homoharringtonine derivatives of different concentrations and mixing uniformly, placing the plate in a carbon dioxide cell incubator (5% CO2) at 37° C. and incubated for 72 hours. Then the viable cell concentration is determined by the MTT method. In this experiment, the cell viability in control group (not treated with any compound) is set as 100%. On such basis, the cell viability (%) after treatment and the 50% inhibiting concentration of the compound for the leukemia cell growth at 72 hours (IC50 value of 72 hours) are calculated.

[2] = tested on: NB4 (acute promyelocytic leukemia, AML); assay: MTT growth inhibition of leukemia cells, 72 h; type: cell-based, human; details: MTT
From the text: as §1, §2, §3

[3] = tested on: Jurkat (acute lymphoblastic leukemia, ALL); assay: MTT growth inhibition of leukemia cells, 72 h; type: cell-based, human
From the text: as §1, §2, §3

[4] = tested on: H9 (acute lymphoblastic leukemia, ALL); assay: MTT growth inhibition of leukemia cells, 72 h; type: cell-based, human; details: MTT
From the text: as §1, §2, §3

[5] = tested on: Kasumi-1 (acute myeloid leukemia M2 type, AML-M2); assay: MTT growth inhibition of leukemia cells, 72 h; type: cell-based, human
From the text: as §1, §2, §3

[6] = tested on: SK-OV-3 (ovarian cancer cell); assay: MTT growth inhibition of human solid tumor cells, 72 h; type: cell-based
Protocol: (§4) Human solid tumor cell lines: Hep-2 (laryngeal carcinoma), A549 (human lung cancer), CaES-17 (esophageal cancer cell), PC-3 (prostate cancer), CNE (nasopharyngeal carcinoma cell), and SK-OV-3 (ovarian cancer cell), all of which are purchased from China Center For Type Culture Collection; RKO (human colon adenocarcinoma cell), MGC 803 (human gastric cancer cell), MG63 (osteosarcoma) and U87 MG (malignant glioma cell), all of which are purchased from Fuxiang Bio-tech Co. Ltd., Shanghai, China; PANC-1 (pancreatic cancer), Huh7 (human liver cancer cell), Becap37 (human breast cancer cell), and Hela (human cervical cancer cell), all of which are donated by Cancer Research Institute of Zhejiang University, China.
(§5) Obtaining 4000 well-growing human solid tumor cells and inoculating them into wells of a 96-well cell culture plate. The culture medium is DMEM High Glucose cell culture medium containing 10% fetal bovine serum. The plate is placed in a carbon dioxide cell incubator (5% CO2) at 37° C. and incubated for 24 hours. After adding the homoharringtonine derivatives of different concentration and mixing uniformly, the plate is placed in a carbon dioxide cell incubator (5% CO2) at 37° C. and incubated for 72 hours. Then the viable cell concentration is determined by the MTT method and the cell viability (%) after drug treatment is calculated. In this experiment, the cell viability of control group (not treated with any compound) is set as 100%.

[7] = tested on: MGC 803 (human gastric cancer cell); assay: as above; type: cell-based
Protocol: as §4, §5

[8] = tested on: U87 MG (malignant glioma cell); assay: as above; type: cell-based
Protocol: as §4, §5

[9] = tested on: Huh7 (human liver cancer cell); assay: as above; type: cell-based
Protocol: as §4, §5

[10] = tested on: Hela (human cervical cancer cell); assay: as above; type: cell-based
Protocol: as §4, §5

MG63 (osteosarcoma) = assay: as above; type: cell-based
Protocol: as §4, §5

[11] = tested on: CaES-17 (esophageal cancer cell); assay: as above; type: cell-based
Protocol: as §4, §5

[12] = tested on: Becap37 (human breast cancer cell); assay: as above; type: cell-based
Protocol: as §4, §5

[13] = tested on: RKO (human colon adenocarcinoma cell); assay: as above; type: cell-based
Protocol: as §4, §5

[14] = tested on: PANC-1 (pancreatic cancer); assay: as above; type: cell-based
Protocol: as §4, §5

[15] = tested on: Hep-2 (laryngeal carcinoma); assay: as above; type: cell-based
Protocol: as §4, §5

A549 (human lung cancer) = assay: as above; type: cell-based
Protocol: as §4, §5

[16] = tested on: CNE (nasopharyngeal carcinoma cell); assay: as above; type: cell-based
Protocol: as §4, §5

PC-3 (prostate cancer) = assay: as above; type: cell-based; details: MTT
Protocol: as §4, §5

[17] = tested on: RPMI8226 (multiple myeloma); assay: MTT growth inhibition of multiple myeloma cells, 72 h; type: cell-based, human
Protocol: Multiple myeloma and lymphoma cell lines: RPMI8226 (multiple myeloma), purchased from Fuxiang Bio-tech Co. Ltd., Shanghai, China.
as §3

Compound: COC(=O)C[C@](O)(CCCC(C)(C)OC(=O)c1scnc1C)C(=O)O[C@@H]1C(OC)=C[C@]23CCCN2CCc2cc4c(cc2[C@H]13)OCO4 [BS-HH-0721]
- IC50 ([1]; Homo sapiens, K562/Adr): 0.01 µg/mL (≈ 0.0149 µM)
- IC90 ([1]; Homo sapiens, K562/Adr): 0.05 µg/mL (≈ 0.0745 µM)
- IC50 ([2]; Homo sapiens): 0.003 µg/mL (≈ 0.00447 µM)
- IC90 ([2]; Homo sapiens): 0.005 µg/mL (≈ 0.00745 µM)
- IC50 ([3]; Homo sapiens, Jurkat): 0.002 µg/mL (≈ 0.00298 µM)
- IC90 ([3]; Homo sapiens, Jurkat): ≥ 16 µg/mL
- IC50 ([4]; Homo sapiens): 0.003 µg/mL (≈ 0.00447 µM)
- IC90 ([4]; Homo sapiens): 0.009 µg/mL (≈ 0.0134 µM)
- IC50 ([5]; Homo sapiens, Kasumi 1, MTT): 0.002 µg/mL (≈ 0.00298 µM)
- IC90 ([5]; Homo sapiens, Kasumi 1, MTT): 0.004 µg/mL (≈ 0.00596 µM)
- IC50 ([6]; Homo sapiens, SK-OV-3, MTT): 0.022 µg/mL (≈ 0.0328 µM)
- IC90 ([6]; Homo sapiens, SK-OV-3, MTT): > 16 µg/mL
- IC50 ([7]; Homo sapiens, MGC-803): 0.006 µg/mL (≈ 0.00894 µM)
- IC90 ([7]; Homo sapiens, MGC-803): 0.019 µg/mL (≈ 0.0283 µM)
- IC50 ([8]; Homo sapiens, U-87 MG): 0.008 µg/mL (≈ 0.0119 µM)
- IC90 ([8]; Homo sapiens, U-87 MG): 0.07 µg/mL (≈ 0.104 µM)
- IC50 ([9]; Homo sapiens, Huh-7): 0.0022 µg/mL (≈ 0.00328 µM)
- IC90 ([9]; Homo sapiens, Huh-7): 0.038 µg/mL (≈ 0.0567 µM)
- IC50 ([10]; Homo sapiens, HeLa, MTT): 0.005 µg/mL (≈ 0.00745 µM)
- IC90 ([10]; Homo sapiens, HeLa, MTT): 16 µg/mL (≈ 23.9 µM)
- anti-Hela effect relative to homoharringtonine ([10]; vs HHT): > 4.0 fold
- IC50 (MG63 (osteosarcoma); Homo sapiens, MG-63, MTT): 0.006 µg/mL (≈ 0.00894 µM)
- IC90 (MG63 (osteosarcoma); Homo sapiens, MG-63, MTT): 0.44 µg/mL (≈ 0.656 µM)
- anti-MG63 effect relative to homoharringtonine (MG63 (osteosarcoma); vs HHT): substantially superior
- IC50 ([11]; Homo sapiens, CaEs17): 0.014 µg/mL (≈ 0.0209 µM)
- IC90 ([11]; Homo sapiens, CaEs17): 16 µg/mL (≈ 23.9 µM)
- IC50 ([12]; Homo sapiens): 0.003 µg/mL (≈ 0.00447 µM)
- IC90 ([12]; Homo sapiens): 8.17 µg/mL (≈ 12.2 µM)
- IC50 ([13]; Homo sapiens, MTT): 0.0009 µg/mL (≈ 0.00134 µM)
- IC90 ([13]; Homo sapiens, MTT): 0.005 µg/mL (≈ 0.00745 µM)
- anti-RKO effect relative to homoharringtonine ([13]; vs HHT): substantially superior
- IC50 ([14]; Homo sapiens, PANC-1, MTT): 0.009 µg/mL (≈ 0.0134 µM)
- IC90 ([14]; Homo sapiens, PANC-1, MTT): > 16 µg/mL
- anti-PANC-1 effect relative to homoharringtonine ([14]; vs HHT): > 4 fold
- IC50 ([15]; Homo sapiens, HEp-2): 0.004 µg/mL (≈ 0.00596 µM)
- IC90 ([15]; Homo sapiens, HEp-2): > 16 µg/mL
- IC50 (A549 (human lung cancer); Homo sapiens, A549): 0.01 µg/mL (≈ 0.0149 µM)
- IC90 (A549 (human lung cancer); Homo sapiens, A549): > 16 µg/mL
- IC50 ([16]; Homo sapiens, MTT): 0.0037 µg/mL (≈ 0.00552 µM)
- IC90 ([16]; Homo sapiens, MTT): > 16 µg/mL
- anti-CNE effect relative to homoharringtonine ([16]; vs HHT): more than 10 fold
- IC50 (PC-3 (prostate cancer); Homo sapiens): 0.04 µg/mL (≈ 0.0596 µM)
- IC90 (PC-3 (prostate cancer); Homo sapiens): > 16 µg/mL
- IC50 ([17]; Homo sapiens, RPMI-8226, MTT): 0.002 µg/mL (≈ 0.00298 µM)
- IC90 ([17]; Homo sapiens, RPMI-8226, MTT): 0.014 µg/mL (≈ 0.0209 µM)

Compound: COC(=O)C[C@](O)(CCCC(C)(C)OC(=O)C1CCCCC1)C(=O)O[C@@H]1C(OC)=C[C@]23CCCN2CCc2cc4c(cc2[C@H]13)OCO4 [BS-HH-076]
- IC50 K562/adr [1]: 0.02 µg/mL (≈ 0.0305 µM)
- IC90 K562/adr [1]: 0.21 µg/mL (≈ 0.32 µM)
- IC50 NB4 [2]: 0.009 µg/mL (≈ 0.0137 µM)
- IC90 NB4 [2]: 0.022 µg/mL (≈ 0.0335 µM)
- IC50 Jurkat [3]: 0.006 µg/mL (≈ 0.00915 µM)
- IC90 Jurkat [3]: 6.24 µg/mL (≈ 9.52 µM)
- IC50 H9 [4]: 0.01 µg/mL (≈ 0.0152 µM)
- IC90 H9 [4]: 0.04 µg/mL (≈ 0.061 µM)
- IC50 Kasumi-1 ([5]; MTT): 0.006 µg/mL (≈ 0.00915 µM)
- IC90 Kasumi-1 ([5]; MTT): 0.023 µg/mL (≈ 0.0351 µM)
- IC50 SK-OV-3 ([6]; MTT): 0.031 µg/mL (≈ 0.0473 µM)
- IC90 SK-OV-3 ([6]; MTT): >16 µg/mL
- IC50 MGC 803 [7]: 0.025 µg/mL (≈ 0.0381 µM)
- IC90 MGC 803 [7]: 0.098 µg/mL (≈ 0.149 µM)
- IC50 U87 MG [8]: 0.009 µg/mL (≈ 0.0137 µM)
- IC90 U87 MG [8]: 0.067 µg/mL (≈ 0.102 µM)
- IC50 Huh7 [9]: 0.008 µg/mL (≈ 0.0122 µM)
- IC90 Huh7 [9]: 0.096 µg/mL (≈ 0.146 µM)
- IC50 Hela ([10]; MTT): 0.011 µg/mL (≈ 0.0168 µM)
- IC90 Hela ([10]; MTT): 10.25 µg/mL (≈ 15.6 µM)
- IC50 MG 63 (MG63 (osteosarcoma); MTT): 0.022 µg/mL (≈ 0.0335 µM)
- IC90 MG 63 (MG63 (osteosarcoma); MTT): 1.72 µg/mL (≈ 2.62 µM)
- IC50 CaES-17 [11]: 0.039 µg/mL (≈ 0.0595 µM)
- IC90 CaES-17 [11]: 16 µg/mL (≈ 24.4 µM)
- IC50 Becap37 [12]: 0.01 µg/mL (≈ 0.0152 µM)
- IC90 Becap37 [12]: 6.4 µg/mL (≈ 9.76 µM)
- IC50 RKO ([13]; MTT): 0.008 µg/mL (≈ 0.0122 µM)
- IC90 RKO ([13]; MTT): 0.02 µg/mL (≈ 0.0305 µM)
- IC50 PANC-1 ([14]; MTT): 0.042 µg/mL (≈ 0.064 µM)
- IC90 PANC-1 ([14]; MTT): >16 µg/mL
- IC50 Hep-2 [15]: 0.012 µg/mL (≈ 0.0183 µM)
- IC90 Hep-2 [15]: >16 µg/mL
- IC50 A549 (A549 (human lung cancer)): 0.03 µg/mL (≈ 0.0457 µM)
- IC90 A549 (A549 (human lung cancer)): >16 µg/mL
- IC50 CNE ([16]; MTT): 0.029 µg/mL (≈ 0.0442 µM)
- IC90 CNE ([16]; MTT): >16 µg/mL
- IC50 PC-3 (PC-3 (prostate cancer)): 0.03 µg/mL (≈ 0.0457 µM)
- IC90 PC-3 (PC-3 (prostate cancer)): >16 µg/mL
- IC50 RPMI8226 ([17]; MTT): 0.007 µg/mL (≈ 0.0107 µM)
- IC90 RPMI8226 ([17]; MTT): 0.034 µg/mL (≈ 0.0518 µM)
